pEC50, pIC50: −log10 of the molar value.
Tests used:
[1] = tested on: MOLM-13 cells; assay: Cell proliferation assay (Cell Titer-Glo, 72 h); format: cell-based; conditions: Homo sapiens, 72 h incubation, * = cytostatic 50%
Method: MOLM-13 cell line was purchased from the Leibniz Institute DSMZ (ACC 554). The cells were cultured according to recommendations in RPMI 1640 cell culture media with 20% FBS (DSMZ). Exponentially growing MOLM-13 cells were plated at 1250 cells per well in Corning 8804BC white 384-well assay plates and incubated overnight at 37° C. in a humidified 5% CO2 incubator. Compounds were transferred to the assay plate from a dose-response plate using a Pintool on a Biomek FXP Laboratory Automation Workstation (Beckman Coulter). Cytotoxicity was determined following 72 hours of incubation using Promega Cell Titer Glo reagent according to the manufacturer's recommendation. Luminescence was measured on an Envision plate reader (Perkin-Elmer).
Compounds were screened in human cancer cell lines and each cell line was cultured in the complete medium recommended by the vendor and seeded in Corning 8804BC white 384-well assay plates at density of 1250 cells per well for MOLM-13 cells. After overnight incubation at 37° C. in a humidified 5% CO2 incubator, cells were treated with compounds in dose-response format using a Pintool on a Biomek FXP Laboratory Automation Workstation (Beckman Coulter). After 72h incubation, cell proliferation was assessed using Cell Titer-Glo (CTG) luminescent cell viability assay (Promega) according to the manufacturer's instruction. Luminescence signal was measured using an Envision plate reader (Perkin-Elmer).

[2] = target: 6XHis-CRBN-DDB1 protein (Homo sapiens (Human), UniProt Q96SW2); assay: CRBN fluorescence polarization assay (competitive, Cy5-O-Len probe); format: binding; conditions: 6XHis-CRBN-DDB1 200 nM, Cy5-O-Len probe 30 nM, 1 hour; mean of three determinations; read-out: CRBN FP (IC50)
Method: In this competitive fluorescent polarization assay Cy5 conjugated lenalidomide analog (Cy5—O-Len)^1 was used as a fluorescent probe. 6XHis-CRBN-DDB1 protein (200 nM) and Cy5—O-Len probe (30 nM) were combined in 20 mM HEPES pH 7, 150 mM NaCl, 0.005% Tween-20 assay buffer. 20 μL of this assay cocktail was dispensed into wells of Corning 3821 black 384-well plates. Compounds were transferred to the assay plate from a dose-response plate using a Pintool on a Biomek FXP Laboratory Automation Workstation (Beckman Coulter). The plates were incubated in the dark for 1 hour at room temperature and then read on an Envision plate reader (PerkinElmer, Massachusetts, USA). IC50 values were determined using a proprietary software RISE (Robust Investigation of Screening Experiments), developed in house on the Pipeline Pilot platform (Biovia, v. 17.2.0). Data represent the mean of three independent determinations.

[3] = tested on: neosubstrate degradation; conditions: relative to lenalidomide; cited from earlier work

Row | pEC50 [1] | pIC50 [2] | SMILES | fold more potent in cells than lenalidomide [3] [fold]
1 | < 5.00 | < 5.00 | COc1ccc(C(=O)NCc2cccc3c2CN(C2CCC(=O)NC2=O)C3=O)cc1 (stereo not shown) [Compound 25, N-((2-(2,6-dioxopiperidin-3-yl)-1-oxoisoindolin-4-yl)methyl)-4-methoxybenzamide] | 
2 | > 6.00 | > 6.00 | O=C1CCC(N2Cc3c(CNC(=O)c4cccc5cc[nH]c45)cccc3C2=O)C(=O)N1 (stereo not shown) [Compound 38, N-((2-(2,6-dioxopiperidin-3-yl)-1-oxoisoindolin-4-yl)methyl)-1H-indole-7-carboxamide] | 
3 | < 5.00 | 5.00 to 6.00 | O=C1CCC(N2Cc3c(CNC(=O)c4cc(F)ccc4F)cccc3C2=O)C(=O)N1 (stereo not shown) [Compound 37, N-((2-(2,6-dioxopiperidin-3-yl)-1-oxoisoindolin-4-yl)methyl)-2,5-difluorobenzamide] | 
4 | > 6.00 | > 6.00 | N#Cc1cccc(C(=O)NCc2cccc3c2CN(C2CCC(=O)NC2=O)C3=O)c1 (stereo not shown) [Compound 26, 3-cyano-N-((2-(2,6-dioxopiperidin-3-yl)-1-oxoisoindolin-4-yl)methyl)benzamide] | 
5 | > 6.00 | > 6.00 | O=C1CCC(N2Cc3c(CNC(=O)c4ccc(F)c(Cl)c4)cccc3C2=O)C(=O)N1 (stereo not shown) [Compound 15, 3-chloro-N-((2-(2,6-dioxopiperidin-3-yl)-1-oxoisoindolin-4-yl)methyl)-4-fluorobenzamide] | 
6 | > 6.00 | > 6.00 | O=C1CCC(N2Cc3c(CNC(=O)c4cccc(Cl)c4)cccc3C2=O)C(=O)N1 (stereo not shown) [Compound 3, 3-chloro-N-((2-(2,6-dioxopiperidin-3-yl)-1-oxoisoindolin-4-yl)methyl)benzamide] | 
7 | > 6.00 | 5.00 to 6.00 | O=C1CCC(N2Cc3c(CNC(=O)c4ccc(C(F)(F)F)c(F)c4)cccc3C2=O)C(=O)N1 (stereo not shown) [Compound 16, N-((2-(2,6-dioxopiperidin-3-yl)-1-oxoisoindolin-4-yl)methyl)-3-fluoro-4-(trifluoromethyl)benzamide] | 
8 | > 6.00 | 5.00 to 6.00 | O=C1CCC(N2Cc3c(CNC(=O)c4cccc(C(F)(F)F)c4)cccc3C2=O)C(=O)N1 (stereo not shown) [Compound 12, N-((2-(2,6-dioxopiperidin-3-yl)-1-oxoisoindolin-4-yl)methyl)-3-(trifluoromethyl)benzamide] | 
9 | < 5.00 | 5.00 to 6.00 | O=C1CCC(N2Cc3c(CNC(=O)c4ccccc4C(F)(F)F)cccc3C2=O)C(=O)N1 (stereo not shown) [Compound 4, N-((2-(2,6-dioxopiperidin-3-yl)-1-oxoisoindolin-4-yl)methyl)-2-(trifluoromethyl)benzamide] | 
10 | > 6.00 | 5.00 to 6.00 | O=C1CCC(N2Cc3c(CNC(=O)c4ccc(Cl)cc4)cccc3C2=O)C(=O)N1 (stereo not shown) [Compound 5, 4-chloro-N-((2-(2,6-dioxopiperidin-3-yl)-1-oxoisoindolin-4-yl)methyl)benzamide] | 
11 | > 6.00 | 5.00 to 6.00 | O=C1CCC(N2Cc3c(CNC(=O)c4cccc(OC(F)(F)F)c4)cccc3C2=O)C(=O)N1 (stereo not shown) [Compound 20, N-((2-(2,6-dioxopiperidin-3-yl)-1-oxoisoindolin-4-yl)methyl)-3-(trifluoromethoxy)benzamide] | 
12 | > 6.00 | > 6.00 | O=C1CCC(N2Cc3c(CNC(=O)c4ccc(-c5ccc(Cl)cc5)o4)cccc3C2=O)C(=O)N1 (stereo not shown) [Compound 44, 5-(4-chlorophenyl)-N-((2-(2,6-dioxopiperidin-3-yl)-1-oxoisoindolin-4-yl)methyl)furan-2-carboxamide] | 
13 | < 5.00 | 5.00 to 6.00 | O=C(Cc1ccccc1Br)NCc1cccc2c1CN(C1CCC(=O)NC1=O)C2=O (stereo not shown) [Compound 41, 2-(2-bromophenyl)-N-((2-(2,6-dioxopiperidin-3-yl)-1-oxoisoindolin-4-yl)methyl)acetamide] | 
14 |  |  | O=C1CC[C@H](N2Cc3c(OCc4ccc(CN5CCOCC5)cc4)cccc3C2=O)C(=O)N1 [CC-220] | 10
15 | > 6.00 | 5.00 to 6.00 | O=C1CCC(N2Cc3c(CNC(=O)c4ccc(Cl)c(F)c4)cccc3C2=O)C(=O)N1 (stereo not shown) [Compound 19, 4-chloro-N-((2-(2,6-dioxopiperidin-3-yl)-1-oxoisoindolin-4-yl)methyl)-3-fluorobenzamide] | 
16 | > 6.00 | > 6.00 | O=C1CCC(N2Cc3c(CNC(=O)c4ccc(F)c(C(F)(F)F)c4)cccc3C2=O)C(=O)N1 (stereo not shown) [Compound 22, N-((2-(2,6-dioxopiperidin-3-yl)-1-oxoisoindolin-4-yl)methyl)-4-fluoro-3-(trifluoromethyl)benzamide] | 

— US20250122166A1, “SUBSTITUTED N-((2-(2,6-DIOXOPIPERIDIN-3-YL)-1-OXOISOINDOLIN-4-YL)METHYL)BENZAMIDE ANALOGS AS MODULATORS OF CEREBLON PROTEIN” (ST. JUDE CHILDREN'S RESEARCH HOSPITAL, INC., priority 2021, published 2025)
